Here are results for 30 compounds from US11040033B2 (Gilead Sciences, Inc., priority 2017, dated 2021).

The assay concerns the target T1, IDO1 (Homo sapiens, UniProt P14902).
T1 construct: HeLa cells were treated with a test compound in the presence of IFNγ, which induces IDO1 expression; endogenous in cells; host or cells: H1-HeLa cells (ATCC #CRL-1958), induced with IFNγ
The assay can be described thus: Cell-based (HeLa) assay for measurement of IDO1 inhibition (kynurenine levels in supernatant after IFNγ induction). Conditions: H1-HeLa cells, IFNγ-induced IDO1, 48 hour incubation, kynurenine absorbance at 480 nm; geometric mean of a minimum of four determinations. The method, then: To measure IDO1 inhibition in tissue culture, HeLa cells were treated with a test compound in the presence of IFNγ, which induces IDO1 expression. Following incubation, cell supernatants were assayed for kynurenine levels, an indicator of IDO1 activity.
H1-HeLa cells (ATCC #CRL-1958) were seeded in 384-well plates (Greiner #82051-282) at a volume […] (Corning #15-018-CM) supplemented with 10% FBS (Corning #35-011-CV) and 1% P/S/G (Corning #30-009-CL) at a density of 1,250 cells/well and incubated overnight at 37° C., 5% CO2/100% humidity. The following day, the test compounds were added in DMSO (0.5% final) at various concentrations, and IDO1 was inducibly expressed by the addition of 50 uL/well of 50 ng/mL of INFγ(Peprotech #300-02) in cell plating media. As a positive control, 50 uL of the cell plating media without IFNγ was added to several wells. Following a 48 hour incubation, the plates were spun down at 1,200 RPM for 5 min at 10° C. 65 μL/well of the supernatant was then transferred to new 384-well plates (Thermo #262160) that contained 10 uL/well of 30% TCA (Sigma #T0699), and the plates were sealed and incubated at 60° C. for 30 min. The plates were then centrifuged for 15 min at 2,000 RPM at 10° C. 40 μL/well of the supernatant was transferred to new 384-well plates (Thermo #262160) and was reacted with 40 μL/well of 2% (w/v) p-dimethylaminobenzaldehyde (Sigma #156417) in glacial acetic acid (Sigma #A6283). The reaction was incubated at room temperature for 10 min and absorbance at 480 nm was read using a PerkinElmer Envision plate reader.
Data in Table 1 were normalized based on positive (−IFNγ) and negative (+IFNγ) controls and EC50 values were calculated from the fit of the dose-response curves to a four-parameter equation. All EC50 values represent geometric mean values of a minimum of four determinations. These assays generally produced results within 2-fold of the reported mean.

T1 sequence (P14902 whole entry): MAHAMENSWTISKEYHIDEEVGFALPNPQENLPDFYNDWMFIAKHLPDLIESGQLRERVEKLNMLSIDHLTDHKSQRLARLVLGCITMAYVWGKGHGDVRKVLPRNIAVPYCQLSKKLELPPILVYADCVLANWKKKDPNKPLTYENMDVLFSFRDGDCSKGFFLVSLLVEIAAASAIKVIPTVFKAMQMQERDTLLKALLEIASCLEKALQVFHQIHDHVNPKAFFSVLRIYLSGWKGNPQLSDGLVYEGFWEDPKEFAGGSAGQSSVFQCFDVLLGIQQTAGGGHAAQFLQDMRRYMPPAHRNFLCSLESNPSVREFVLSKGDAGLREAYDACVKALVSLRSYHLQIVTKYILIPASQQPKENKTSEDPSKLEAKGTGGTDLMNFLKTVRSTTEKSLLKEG

The compound `Cc1ccc(-c2cccn3c(-c4ccccc4C(N)=O)nnc23)cc1C(=O)Nc1ccc(F)cc1` [Example 1, 5-(3-(2-carbamoylphenyl)-[1,2,4]triazolo[4,3-a]pyridin-8-yl)-N-(4-fluorophenyl)-2-methylbenzamide] returned an EC50 of 5340 nM.
Under `Cc1nnc(-c2ncc3c(-c4ccc(C)c(C(=O)Nc5ccc(F)cc5)c4)cccn23)o1` [Example 2, N-(4-fluorophenyl)-2-methyl-5-(3-(5-methyl-1,3,4-oxadiazol-2-yl)imidazo[1,5-a]pyridin-8-yl)benzamide] stands 3840 nM; under `Cc1ccc(-c2cccn3c(-c4cnnn4C)ncc23)cc1C(=O)Nc1ccc(F)cc1` [Example 3, N-(4-fluorophenyl)-2-methyl-5-(3-(1-methyl-1H-1,2,3-triazol-5-yl)imidazo[1,5-a]pyridin-8-yl)benzamide], 2190 nM.
Under `Cc1ccc(-c2cccn3c(-c4cccnc4C)nnc23)cc1C(=O)Nc1ccc(F)cc1` [Example 4, N-(4-fluorophenyl)-2-methyl-5-(3-(2-methylpyridin-3-yl)-[1,2,4]triazolo[4,3-a]pyridin-8-yl)benzamide] stands 2160 nM.
Under `Cc1ccc(-c2cccn3c(-c4ccc(F)cc4C)nnc23)cc1C(=O)Nc1ccc(F)cc1` [Example 5, 5-(3-(4-fluoro-2-methylphenyl)-[1,2,4]triazolo[4,3-a]pyridin-8-yl)-N-(4-fluorophenyl)-2-methylbenzamide] stands 1410 nM; under `NC(=O)c1ccnc(-c2ncc3c(-c4ccc(C(F)(F)F)c(C(=O)Nc5ccc(F)cc5)c4)cccn23)c1` [Example 6, 2-(8-(3-((4-fluorophenyl)carbamoyl)-4-(trifluoromethyl)phenyl)imidazo[1,5-a]pyridin-3-yl)isonicotinamide], 1330 nM.
As for `Cc1ccc(-c2cccn3c(-c4nnco4)ncc23)cc1C(=O)Nc1ccc(F)cc1` [Example 7], the response was half-maximal at 1220 nM (EC50).
For `Cn1nncc1-c1ncc2c(-c3ccc(C(F)(F)F)c(C(=O)Nc4ccc(F)cc4)c3)cccn12` [Example 8, N-(4-fluorophenyl)-5-(3-(1-methyl-1H-1,2,3-triazol-5-yl)imidazo[1,5-a]pyridin-8-yl)-2-(trifluoromethyl)benzamide], it took 1200 nM to reach a half-maximal effect (EC50).
Under `Cc1ccc(-c2cccn3c(-c4ccccc4)nnc23)cc1C(=O)Nc1ccc(F)cc1` [Example 9, N-(4-fluorophenyl)-2-methyl-5-(3-phenyl-[1,2,4]triazolo[4,3-a]pyridin-8-yl)benzamide] stands 809 nM; under `N#Cc1ccnc(-c2ncc3c(-c4ccc(C(F)(F)F)c(C(=O)Nc5ccc(F)cc5)c4)cccn23)c1` [Example 10, 5-(3-(4-cyanopyridin-2-yl)imidazo[1,5-a]pyridin-8-yl)-N-(4-fluorophenyl)-2-(trifluoromethyl)benzamide], 712 nM.
Compound `Cc1ccc(-c2cccn3c(-c4cccnc4)nnc23)cc1C(=O)Nc1ccc(F)cc1` [Example 11, N-(4-fluorophenyl)-2-methyl-5-(3-(pyridin-3-yl)-[1,2,4]triazolo[4,3-a]pyridin-8-yl)benzamide] displayed an EC50 of 683 nM.
On to `Cc1ccc(-c2cccn3c(-c4ccccc4C)nnc23)cc1C(=O)Nc1ccc(F)cc1` [Example 12, N-(4-fluorophenyl)-2-methyl-5-(3-(o-tolyl)-[1,2,4]triazolo[4,3-a]pyridin-8-yl)benzamide], for which a half-maximal response (EC50) required 403 nM.
Under `Cn1cnc(-c2ncc3c(-c4ccc(C(F)(F)F)c(C(=O)Nc5ccc(F)cc5)c4)cccn23)c1` [Example 13, N-(4-fluorophenyl)-5-(3-(1-methyl-1H-imidazol-4-yl)imidazo[1,5-a]pyridin-8-yl)-2-(trifluoromethyl)benzamide] stands 365 nM; under `Cc1ccc(-c2cccn3c(-c4cn(C)cn4)ncc23)cc1C(=O)Nc1ccc(F)cc1` [Example 14, N-(4-fluorophenyl)-2-methyl-5-(3-(1-methyl-1H-imidazol-4-yl)imidazo[1,5-a]pyridin-8-yl)benzamide], 322 nM; under `N#Cc1cccnc1-c1ncc2c(-c3ccc(C(F)(F)F)c(C(=O)Nc4ccc(F)cc4)c3)cccn12` [Example 15, 5-(3-(3-cyanopyridin-2-yl)imidazo[1,5-a]pyridin-8-yl)-N-(4-fluorophenyl)-2-(trifluoromethyl)benzamide], 274 nM.
Regarding `Cc1ncc(-c2cccn3c(-c4ccccc4C(F)(F)F)ncc23)cc1C(=O)Nc1ccc(F)cc1` [Example 16, N-(4-fluorophenyl)-2-methyl-5-(3-(2-(trifluoromethyl)phenyl)imidazo[1,5-a]pyridin-8-yl)nicotinamide], a half-maximal response (EC50) required 239 nM.
For the compound `O=C(Nc1ccc(F)cc1)c1cc(-c2cccn3c(-c4cccnn4)ncc23)ccc1C(F)(F)F` [Example 17, N-(4-fluorophenyl)-5-(3-(pyridazin-3-yl)imidazo[1,5-a]pyridin-8-yl)-2-(trifluoromethyl)benzamide], the midpoint of the response, the EC50, lay at 237 nM.
Under `Cc1ncc(-c2cccn3c(-c4cccc(F)c4C(F)(F)F)ncc23)cc1C(=O)Nc1ccc(F)cc1` [Example 18, 5-(3-(3-fluoro-2-(trifluoromethyl)phenyl)imidazo[1,5-a]pyridin-8-yl)-N-(4-fluorophenyl)-2-methylnicotinamide] stands 211 nM; under `Cc1ncc(-c2cccn3c(-c4ncccc4F)ncc23)cc1C(=O)Nc1ccc(F)cc1` [Example 19, N-(4-fluorophenyl)-5-(3-(3-fluoropyridin-2-yl)imidazo[1,5-a]pyridin-8-yl)-2-methylnicotinamide], 199 nM; under `Cc1ccc(-c2cccn3c(-c4cccc(F)c4F)nnc23)cc1C(=O)Nc1ccc(F)cc1` [Example 20, 5-(3-(2,3-difluorophenyl)-[1,2,4]triazolo[4,3-a]pyridin-8-yl)-N-(4-fluorophenyl)-2-methylbenzamide], 192 nM.
As for `O=C(Nc1ccc(F)cc1)c1cc(-c2cccn3c(-c4ccnc5ccccc45)ncc23)ccc1C(F)(F)F` [Example 21, N-(4-fluorophenyl)-5-(3-(quinolin-4-yl)imidazo[1,5-a]pyridin-8-yl)-2-(trifluoromethyl)benzamide], the EC50 was 183 nM.
As for `Cc1cccc(-c2ncc3c(-c4cnc(C)c(C(=O)Nc5ccc(F)cc5)c4)cccn23)c1` [Example 22, N-(4-fluorophenyl)-2-methyl-5-(3-(m-tolyl)imidazo[1,5-a]pyridin-8-yl)nicotinamide], the EC50 amounted to 135 nM.
`Cc1ncc(-c2cccn3c(-c4cc(F)ccn4)ncc23)cc1C(=O)Nc1ccc(F)cc1` [Example 23, N-(4-fluorophenyl)-5-(3-(4-fluoropyridin-2-yl)imidazo[1,5-a]pyridin-8-yl)-2-methylnicotinamide] had an EC50 of 112 nM.
Compound `Cc1ncc(-c2cccn3c(-c4c(F)cccc4F)ncc23)cc1C(=O)Nc1ccc(F)cc1` [Example 24, 5-(3-(2,6-difluorophenyl)imidazo[1,5-a]pyridin-8-yl)-N-(4-fluorophenyl)-2-methylnicotinamide] returned an EC50 of 104 nM.
Under `Cc1ncc(-c2cccn3c(-c4ncccn4)ncc23)cc1C(=O)Nc1ccc(F)cc1` [Example 25, N-(4-fluorophenyl)-2-methyl-5-(3-(pyrimidin-2-yl)imidazo[1,5-a]pyridin-8-yl)nicotinamide] stands 69 nM.
In turn, `O=C(Nc1ccc(F)cc1)c1cc(-c2cccn3c(-c4ccncn4)ncc23)ccc1C(F)(F)F` [Example 26, N-(4-fluorophenyl)-5-(3-(pyrimidin-4-yl)imidazo[1,5-a]pyridin-8-yl)-2-(trifluoromethyl)benzamide] came in with an EC50 of 66.4 nM.
Under `Cc1ncc(-c2cccn3c(-c4cc(F)cc(F)c4)ncc23)cc1C(=O)Nc1ccc(F)cc1` [Example 27, 5-(3-(3,5-difluorophenyl)imidazo[1,5-a]pyridin-8-yl)-N-(4-fluorophenyl)-2-methylnicotinamide] stands 61.7 nM; under `O=C(Nc1ccc(F)cc1)c1cc(-c2cccn3c(-c4cccc(F)c4F)ncc23)ncc1C(F)(F)F` [Example 28, 2-(3-(2,3-difluorophenyl)imidazo[1,5-a]pyridin-8-yl)-N-(4-fluorophenyl)-5-(trifluoromethyl)isonicotinamide], 57.9 nM; under `Cc1ccccc1-c1ncc2c(-c3cnc(C)c(C(=O)Nc4ccc(F)cc4)c3)cccn12` [Example 29, N-(4-fluorophenyl)-2-methyl-5-(3-(o-tolyl)imidazo[1,5-a]pyridin-8-yl)nicotinamide], 44.7 nM.
The compound `Cc1ncc(-c2cccn3c(-c4cc(F)ccc4F)ncc23)cc1C(=O)Nc1ccc(F)cc1` [Example 30] displayed an EC50 of 39 nM.

For orientation: EC50 means the concentration giving half of the maximal effect. Read a low EC50 as higher potency in that assay.
